Test results from patent US20240116985A1, “STAPLED PEPTIDES AND METHODS THEREOF” (priority 2020, published 2024).
Values after ≈ are worked out from the molar mass of the structure shown. Where two headings read alike, the source gives them in different places.

Legend:
[1] = target: T1, full-length beta-Catenin (Uniprot ID P35222) (Homo sapiens, UniProt P35222); assay: Fluorescence polarization IC50 (beta-catenin / 5FAM-TCF4 10-53 competition); format: binding
T1 construct: 10 nM full-length beta-Catenin (Uniprot ID P35222)
T1 sequence (P35222 1-781): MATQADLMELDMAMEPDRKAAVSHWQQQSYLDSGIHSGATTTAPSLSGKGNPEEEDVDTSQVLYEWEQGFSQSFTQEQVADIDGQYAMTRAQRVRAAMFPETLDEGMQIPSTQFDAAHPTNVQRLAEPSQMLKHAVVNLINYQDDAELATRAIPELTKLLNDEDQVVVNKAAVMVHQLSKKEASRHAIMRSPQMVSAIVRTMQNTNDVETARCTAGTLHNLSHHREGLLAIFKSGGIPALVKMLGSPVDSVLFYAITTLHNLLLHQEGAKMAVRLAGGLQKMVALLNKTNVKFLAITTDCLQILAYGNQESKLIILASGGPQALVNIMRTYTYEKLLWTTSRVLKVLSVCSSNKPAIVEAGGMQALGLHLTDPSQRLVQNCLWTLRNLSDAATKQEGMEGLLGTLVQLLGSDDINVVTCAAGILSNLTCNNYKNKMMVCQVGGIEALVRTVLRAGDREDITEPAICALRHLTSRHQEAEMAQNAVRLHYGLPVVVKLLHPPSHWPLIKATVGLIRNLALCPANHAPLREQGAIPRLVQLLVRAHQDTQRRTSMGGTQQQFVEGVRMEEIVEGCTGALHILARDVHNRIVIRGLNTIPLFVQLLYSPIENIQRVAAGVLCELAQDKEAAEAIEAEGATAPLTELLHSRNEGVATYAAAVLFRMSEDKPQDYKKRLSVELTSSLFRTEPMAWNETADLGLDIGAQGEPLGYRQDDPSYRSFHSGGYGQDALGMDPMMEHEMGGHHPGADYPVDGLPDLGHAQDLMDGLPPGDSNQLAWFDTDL

CHI Log D procedure = format: physicochemical; conditions: for CHI Log D: pH 7.4; for chromatographic logD: pH 7.4, CHI Log D
Solubility in PBS = format: physicochemical
Outline: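 Steps: ultracentrifuge the peptide PBS solution, inject the supernatant on HPLC, inject a 50 μM peptide DMSO solution as reference, then calculate solubility as area ratio (PBS/DMSO) × 50 uM.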

[2] = fluorescence polarization, beta-catenin, read-out: FP EC50
[3] = fluorescence polarization, read-out: beta-Catenin FP IC50
[4] = Table E2-1, read-out: beta-Catenin FP IC50

Structure (SMILES) | IC50 [1, 2] [nM] | IC50 ([1]; read-out: beta-Catenin FP IC50) [nM] | CHI Log D (CHI Log D procedure) | Solubility (Solubility in PBS) [µM] | IC50 [1, 3] [nM] | IC50 ([1]; read-out: FP EC50) [nM] | chromatographic logD (CHI Log D procedure) | Solubility (Solubility in PBS; Solubility (uM)) [µM] | IC50 [1, 4] [nM]
CC(=O)N1CCC[C@]12CC=CCCCC1(CCCC=CCCCOC(=O)N3CC[C@@](C(=O)N[C@@H](Cc4ccsc4)C(=O)N[C@@H](Cc4csc5ccccc45)C(=O)N[C@@H](CO)C(N)=O)(C3)NC(=O)[C@H](CO)NC(=O)[C@H](Cc3ccccc3)NC(=O)[C@H](C)NC(=O)[C@H](C)NC(=O)[C@H](CN(CC(=O)O)CC(F)(F)F)NC(=O)[C@H](CC(=O)O)NC1=O)NC(=O)[C@H](CC(C)(C)C)NC(=O)[C@H](CC(=O)O)NC2=O (stereo partly drawn) [I-954, Ac-PL3-Asp-Npg-B5-Asp-TfeGA-Ala-Ala-Phe-Ser-PyrS2-3Thi-BztA-Ser-NH2] | 900 | 900 | 1.918 | 46 (≈ 90.2 µg/mL) | – | – | – | – | –
CC[C@H](C)[C@@H]1NC(=O)[C@H](CC(=O)O)NC(=O)[C@]2(CC=CCCCC3(CCCC=CCCCCCC[C@@](C)(C(=O)N[C@@H](Cc4ccccc4)C(=O)N[C@@H](Cc4csc5ccccc45)C(=O)N[C@@H](CCC(N)=O)C(N)=O)NC(=O)[C@H](CCC(N)=O)NC(=O)[C@H](Cc4ccccc4)NC(=O)[C@H](C)NC(=O)[C@H](Cc4ccccc4)NC(=O)[C@H](CCC(=O)O)NC(=O)[C@H](CC(=O)O)NC3=O)NC1=O)CCCN2C(C)=O (stereo partly drawn) [I-650, Ac-PL3-Asp-Ile-B5-Asp-Glu-Phe-Ala-Phe-Gln-S8-Phe-BztA-Gln-NH2] | – | – | 2.718 | 45 (≈ 88.2 µg/mL) | 137 | 137 | – | – | –
CC(=O)N1CCC[C@]12CC=CCCCC1(CCCC=CCCCOC(=O)N3CC[C@@](C(=O)N[C@@H](Cc4ccccc4Cl)C(=O)N[C@@H](Cc4csc5ccccc45)C(=O)N[C@H](C(N)=O)[C@@H](C)O)(C3)NC(=O)[C@H](CC(C)C)NC(=O)[C@H](Cc3ccccc3)NC(=O)[C@H](C)NC(=O)[C@H](C)NC(=O)[C@H](CCC(=O)O)NC(=O)[C@H](CC(=O)O)NC1=O)NC(=O)[C@H](CC(C)(C)C)NC(=O)[C@H](CC(=O)O)NC2=O (stereo partly drawn) [I-1070, Ac-PL3-Asp-Npg-B5-Asp-Glu-Ala-Ala-Phe-Leu-PyrS2-2C1F-BztA-Thr-NH2] | 1020 | 1020 | 2.135 | 10 (≈ 19.3 µg/mL) | – | – | – | – | –
CC(=O)N1CCC[C@]12CC=CCCCC1(CCCC=CCCCCCC[C@@](C)(C(=O)N[C@@H](Cc3ccccc3)C(=O)N[C@@H](Cc3csc4ccccc34)C(=O)N[C@@H](Cc3c[nH]cn3)C(=O)N[C@@H](C)C(N)=O)NC(=O)[C@H](CC(N)=O)NC(=O)[C@H](Cc3ccccc3)NC(=O)[C@H](C)NC(=O)[C@H](C)NC(=O)[C@H](CCC(=O)O)NC(=O)[C@H](CC(=O)O)NC1=O)NC(=O)[C@H](CC(C)C)NC(=O)[C@H](CC(=O)O)NC2=O (stereo partly drawn) [I-738, Ac-PL3-Asp-Leu-B5-Asp-Glu-Ala-Ala-Phe-Asn-S8-Phe-BztA-His-Ala-NH2] | – | – | – | – | 63 | – | 2.46 | 41 (≈ 79.9 µg/mL) | –
CC(=O)N1CCC[C@]12CC=CCCCC1(CCCC=CCCCCCC[C@@](C)(C(=O)N[C@@H](Cc3ccccc3)C(=O)N[C@@H](Cc3csc4ccccc34)C(=O)N[C@@H](CCC(N)=O)C(N)=O)NC(=O)[C@H](C(C)C)NC(=O)[C@H](Cc3cccc(C(F)(F)F)c3)NC(=O)[C@H](C)NC(=O)[C@H](C)NC(=O)[C@H](CC(=O)O)NC(=O)[C@H](CC(=O)O)NC1=O)NC(=O)[C@H](C)NC(=O)[C@H](CC(=O)O)NC2=O (stereo partly drawn) [I-373, Ac-PL3-Asp-Ala-B5-Asp-Asp-Ala-Ala-3F3MeF-Val-S8-Phe-BztA-Gln-NH2] | – | – | – | – | – | – | 2.3 | 26 (≈ 48.5 µg/mL) | 945
CC(=O)N1CCC[C@]12CC=CCCCC1(CCCC=CCCCCCC[C@@](C)(C(=O)N[C@@H](Cc3ccccc3Br)C(=O)N[C@@H](Cc3csc4ccccc34)C(=O)N[C@@H](CCC(N)=O)C(N)=O)NC(=O)[C@H](CC(N)=O)NC(=O)[C@H](Cc3ccccc3)NC(=O)[C@H](C)NC(=O)[C@H](C)NC(=O)[C@H](CCC(=O)O)NC(=O)[C@H](CC(=O)O)NC1=O)NC(=O)[C@H](C)NC(=O)[C@H](CC(=O)O)NC2=O (stereo partly drawn) [I-436, Ac-PL3-Asp-Ala-B5-Asp-Glu-Ala-Ala-Phe-Asn-S8-2BrF-BztA-Gln-NH2] | – | – | – | 50 (≈ 95.3 µg/mL) | 56 | – | 2.16 | – | –
COCCOCCOCCOCCOCCOCCOCCOCCC(=O)NCCCC[C@H](NC(=O)[C@H](CCC(N)=O)NC(=O)[C@H](Cc1csc2ccccc12)NC(=O)[C@H](Cc1ccsc1)NC(=O)[C@]12CCN(C1)C(=O)OCCCC=CCCCC1(CCCC=CC[C@]3(CCCN3C(C)=O)C(=O)N[C@@H](CC(=O)O)C(=O)N[C@@H](CC(C)(C)C)C(=O)N1)C(=O)N[C@@H](CC(=O)O)C(=O)N[C@@H](CC(=O)O)C(=O)N[C@@H](C)C(=O)N[C@@H](C)C(=O)N[C@@H](Cc1ccccc1)C(=O)N[C@@H](CC(N)=O)C(=O)N2)C(N)=O (stereo partly drawn) [I-914, Ac-PL3-Asp-Npg-B5-Asp-Asp-Ala-Ala-Phe-Asn-PyrS2-3Thi-BztA-Gln-[mPEG8]Lys-NH2] | – | 16 | – | – | – | – | 1.82 | 46 (≈ 112 µg/mL) | –
CC(=O)N1CCC[C@]12CC=CCCCC1(CCCC=CCCCCCC[C@@](C)(C(=O)N[C@@H](Cc3ccccn3)C(=O)N[C@@H](Cc3csc4ccccc34)C(=O)N[C@@H](CCC(N)=O)C(N)=O)NC(=O)[C@H](C(C)C)NC(=O)[C@H](Cc3ccccc3)NC(=O)[C@H](C)NC(=O)[C@H](C)NC(=O)[C@H](CCC(=O)O)NC(=O)[C@H](CC(=O)O)NC1=O)NC(=O)[C@H](C)NC(=O)[C@H](CC(=O)O)NC2=O (stereo partly drawn) [I-384, Ac-PL3-Asp-Ala-B5-Asp-Glu-Ala-Ala-Phe-Val-S8-2pyrA-BztA-Gln-NH2] | 177 | – | 1.837 | 45 (≈ 81.6 µg/mL) | – | – | – | – | 177
CC[C@@H]1NC(=O)[C@H](CC(=O)O)NC(=O)[C@]2(CC=CCCCC3(CCCC=CCCCCCC[C@@](C)(C(=O)N[C@@H](Cc4ccccc4)C(=O)N[C@@H](Cc4csc5ccccc45)C(=O)N[C@@H](Cc4c[nH]cn4)C(N)=O)NC(=O)[C@H](CC(N)=O)NC(=O)[C@H](Cc4ccccc4)NC(=O)[C@H](C)NC(=O)[C@H](C)NC(=O)[C@H](CC(=O)O)NC(=O)[C@H](CC(=O)O)NC3=O)NC1=O)CCCN2C(C)=O (stereo partly drawn) [I-575, Ac-PL3-Asp-Abu-B5-Asp-Asp-Ala-Ala-Phe-Asn-S8-Phe-BztA-His-NH2] | – | – | 2.21 | 46 (≈ 84.5 µg/mL) | 21 | 21 | – | – | –
CC[C@H](C)[C@@H]1NC(=O)[C@H](CC(=O)O)NC(=O)[C@]2(CC=CCCCC3(CCCC=CCCCCCC[C@@](C)(C(=O)N[C@@H](Cc4ccccc4)C(=O)N[C@@H](Cc4csc5ccccc45)C(=O)N[C@@H](CCC(N)=O)C(N)=O)NC(=O)[C@H](CCC(N)=O)NC(=O)[C@H](Cc4ccccc4)NC(=O)[C@H](C)NC(=O)[C@H](CO)NC(=O)[C@H](CCC(=O)O)NC(=O)[C@H](CC(=O)O)NC3=O)NC1=O)CCCN2C(C)=O (stereo partly drawn) [I-652, Ac-PL3-Asp-Ile-B5-Asp-Glu-Ser-Ala-Phe-Gln-S8-Phe-BztA-Gln-NH2] | – | – | 2.233 | 48 (≈ 91.2 µg/mL) | 72 | 72 | – | – | –
CC(=O)N1CCC[C@]12CC=CCCCC1(CCCC=CCCCCCC[C@@](C)(C(=O)N[C@@H](Cc3ccccc3)C(=O)N[C@@H](Cc3csc4ccccc34)C(=O)N[C@@H](Cc3c[nH]cn3)C(N)=O)NC(=O)[C@H](CCC(N)=O)NC(=O)[C@H](Cc3ccccc3)NC(=O)[C@H](C)NC(=O)[C@H](C)NC(=O)[C@H](CCC(=O)O)NC(=O)[C@H](CC(=O)O)NC1=O)NC(=O)[C@H](CC(F)(F)F)NC(=O)[C@H](CC(=O)O)NC2=O (stereo partly drawn) [I-504, Ac-PL3-Asp-F3CA-B5-Asp-Glu-Ala-Ala-Phe-Gln-S8-Phe-BztA-His-NH2] | – | – | – | – | 65 | – | 2.22 | 18 (≈ 34.5 µg/mL) | –
CC(=O)N1CCC[C@]12CC=CCCCC1(CCCC=CCCCCCC[C@@](C)(C(=O)N[C@@H](Cc3ccccc3)C(=O)N[C@@H](Cc3csc4ccccc34)C(=O)N[C@H](Cc3c[nH]cn3)C(N)=O)NC(=O)[C@H](CC(N)=O)NC(=O)[C@H](Cc3ccccc3)NC(=O)[C@H](C)NC(=O)[C@H](C)NC(=O)[C@H](CCC(=O)O)NC(=O)[C@H](CC(=O)O)NC1=O)NC(=O)[C@H](CC(C)C)NC(=O)[C@H](CC(=O)O)NC2=O (stereo partly drawn) [I-745, Ac-PL3-Asp-Leu-B5-Asp-Glu-Ala-Ala-Phe-Asn-S8-Phe-BztA-dHis-NH2] | – | – | 2.61 | 10 (≈ 18.8 µg/mL) | 80 | 80 | – | – | –
